Experiments:
crcB fluoride riboswitch = details: in-line probing; cited from earlier work
Cas13a = biological target: T1, Cas13a (Leptotrichia wadei, UniProt U2PSH1); assay: SHERLOCK reactions without RNAP at varying sodium fluoride; type: biochemical, Leptotrichia wadeii; details: FIG. 6A
T1 construct: His-tag (N, cleaved yes); twinstrep (N, cleaved yes); SUMO (N, cleaved yes); made in house; host or cells: BL21(DE3) Rosetta Escherichia coli
T1 sequence (U2PSH1 1-1182): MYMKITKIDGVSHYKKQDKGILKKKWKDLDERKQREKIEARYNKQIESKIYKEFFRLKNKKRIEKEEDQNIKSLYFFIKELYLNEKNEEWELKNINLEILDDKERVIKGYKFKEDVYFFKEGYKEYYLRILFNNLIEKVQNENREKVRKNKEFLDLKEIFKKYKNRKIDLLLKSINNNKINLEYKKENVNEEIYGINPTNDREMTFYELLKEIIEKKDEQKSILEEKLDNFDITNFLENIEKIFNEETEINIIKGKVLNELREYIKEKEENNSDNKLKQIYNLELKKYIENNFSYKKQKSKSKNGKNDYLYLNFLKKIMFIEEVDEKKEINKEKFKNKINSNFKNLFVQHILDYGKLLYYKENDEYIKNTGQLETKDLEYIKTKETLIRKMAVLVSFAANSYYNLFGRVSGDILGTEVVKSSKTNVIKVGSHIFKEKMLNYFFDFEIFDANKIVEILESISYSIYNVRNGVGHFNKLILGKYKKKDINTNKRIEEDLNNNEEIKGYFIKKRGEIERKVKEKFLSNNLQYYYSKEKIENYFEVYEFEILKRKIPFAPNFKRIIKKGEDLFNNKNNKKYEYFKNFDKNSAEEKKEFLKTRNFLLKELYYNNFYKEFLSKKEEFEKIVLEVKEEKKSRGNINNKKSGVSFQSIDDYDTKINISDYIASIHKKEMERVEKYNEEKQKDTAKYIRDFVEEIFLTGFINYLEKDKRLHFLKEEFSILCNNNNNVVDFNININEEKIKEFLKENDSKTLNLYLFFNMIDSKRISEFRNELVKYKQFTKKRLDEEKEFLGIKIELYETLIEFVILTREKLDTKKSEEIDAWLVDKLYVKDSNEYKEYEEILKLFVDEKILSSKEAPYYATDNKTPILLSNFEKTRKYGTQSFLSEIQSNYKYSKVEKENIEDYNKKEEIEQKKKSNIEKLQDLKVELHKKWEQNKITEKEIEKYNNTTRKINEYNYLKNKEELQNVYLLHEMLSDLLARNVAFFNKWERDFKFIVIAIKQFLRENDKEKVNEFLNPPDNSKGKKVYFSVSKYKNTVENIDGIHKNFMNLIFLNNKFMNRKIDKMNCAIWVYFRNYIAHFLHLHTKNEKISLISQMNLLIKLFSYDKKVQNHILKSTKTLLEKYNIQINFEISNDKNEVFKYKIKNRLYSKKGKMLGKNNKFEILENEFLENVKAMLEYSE
Protocol: Purification of LwaCas13a protein. LwaCas13a from Leptotrichia wadeii has a specific preference for collaterally cleaving poly-uracil ssRNA oligos and was used for various experiments in these examples. LwaCas13a was purified as follows. The expression plasmid (pC013) encoded LwaCas13a with an N-terminal His-tag, followed by twinstrep and SUMO tags. The plasmid was transformed into BL21(DE3) Rosetta Escherichia coli cells. 20 mL bacterial culture was grown overnight in Luria broth (LB) medium supplemented with 100 μM carbenicillin that was used to inoculate 1 L cultures in LB medium. The culture was shaken at 37° C. until the OD600 reached around 0.6. The culture was cooled down to approximately 20° C. in a cold water bath and protein expression was induced by adding 0.5 mM Isopropyl beta-D-1-thiogalactopyronoside (IPTG). The culture was grown in a 20° C. shaker for 16 hours. […] Protein concentration was determined using the absorbance at 280 nm and an extinction coefficient of 119800 M^−1 cm^−1; 1.5 mL of 47 μM protein was obtained from 2 liters of culture. […]
In other methods, SHERLOCK reactions were performed with purified target RNA as input, the concentration of the components, order of addition of components and measurement of fluorescence was carried out the same way as in the SPRINT reactions. […]

fluoride concentration at which Cas13a activity sharply dropped (Cas13a): around 600 μM
Structure (SMILES): [F-].[Na+] [fluoride, sodium fluoride]
Kd (crcB fluoride riboswitch): ~60 µM

Reference: US20230279482A1, “COMPOSITIONS, METHODS AND USES FOR QUANTIFYING TRANSCRIPTION AND BIOSENSING OF SMALL MOLECULES USING A NOVEL TYPE VI CRISPR-CAS ASSAY” (THE REGENTS OF THE UNIVERSITY OF COLORADO, A BODY CORPORATE, priority 2020, published 2023)
